Measurements published in patent publication US9296716B2, “Androgen receptor ligands” (THE PROVOST, FELLOWS, FOUNDATION SCHOLARS, & THE OTHER …, priority 2011, dated 2016).

What was measured:
Format in all cases: biochemical
AR-LBD wt = biological target: T1, AR-LBD wt (Homo sapiens, UniProt P10275); experiment: Lanthascreen TR-FRET AR coactivator (D11-FxxLF) assay, AR-LBD wt; settings: for type of AR antagonism (full / partial): TR-FRET in agonist and antagonist mode; for IC50: TR-FRET, D11-FxxLF peptide, DHT = EC80, read-out: Activity (AR wt TR-FRET)
T1 sequence (P10275 669-900 limits assumed): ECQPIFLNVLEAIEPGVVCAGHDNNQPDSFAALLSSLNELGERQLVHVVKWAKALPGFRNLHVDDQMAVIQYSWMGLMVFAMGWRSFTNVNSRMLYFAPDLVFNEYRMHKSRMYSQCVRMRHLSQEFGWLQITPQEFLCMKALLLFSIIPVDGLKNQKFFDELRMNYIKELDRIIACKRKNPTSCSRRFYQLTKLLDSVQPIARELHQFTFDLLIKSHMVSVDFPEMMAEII

[1] = biological target: T2, Glucocorticoid Receptor (GR) LBD (Homo sapiens, UniProt P04150); experiment: TR-FRET SRC1-4 coactivator recruitment assay, GR LBD; settings: Dexamethasone = EC80; for effect on SRC1-4 recruitment by GR LBD: 100 μM to 12.5 μM or single point 100 μM; for IC50: TR-FRET, ± SEM (n = 6), read-out: NR LBDs IC50 (μM) GR
T2 construct: purchased Invitrogen PV4683
T2 sequence (P04150 524-758 limits assumed): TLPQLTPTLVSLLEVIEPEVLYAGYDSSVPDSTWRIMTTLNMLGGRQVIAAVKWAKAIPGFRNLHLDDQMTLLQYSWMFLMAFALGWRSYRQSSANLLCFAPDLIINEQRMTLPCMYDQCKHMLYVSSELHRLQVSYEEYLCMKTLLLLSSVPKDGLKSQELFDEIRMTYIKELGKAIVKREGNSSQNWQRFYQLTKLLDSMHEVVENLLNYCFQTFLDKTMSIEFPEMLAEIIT
Experimental: (§1) Compound binding affinities for Progesterone Receptor (PR), Glucocorticoid Receptor (GR), Estrogen Receptor alpha and Estrogen Receptor beta were determined using TR-FRET (Table 2).
Dexamethasone bound receptor recruitment of the fluorescently labelled SCR1-4 coactivator was unimpaired at screening concentrations up to 100 μM for all the diarylhydrazides evaluated (FIG. 5).
(§2) Lanthascreen TR-FRET AR Coactivator Assay kit (Invitrogen, cat no. PV4381) was used to screen for potential coactivator disruptors.
(§3) TR FRET values were calculated at 10 flashes per well, using a delay time of 100 μs and integration time 200 μs as recommended by the Invitrogen assay guidelines. […] A serial dilution of compounds was firstly prepared in 100×DMSO (Sigma-Aldrich) starting from the maximum desired concentration to achieve a 12 point range concentration using 96-well polypropylene plates (Nalgene Nunc, Rochester, N.Y.). Each 100× solution was diluted to 2× concentration with TR-FRET co-regulator buffer A (Invitrogen proprietary buffer), yielding a final concentration of 1% DMSO in each well.
(§4) D11-FxxLF and Tb antibody were premixed in light protecting vials prior to use. A final concentration of DTT 5 mM was used in the assay buffer in order to prevent protein degradation. All plates (agonist and antagonist mode) were incubated between 2 and 4 hours at room temperature protected from light prior to TR-FRET measurement. […] Data was fitted using the sigmoidal dose response (variable slope) available from Graphpad Prism 5. Y=Bottom+(Top-Bottom)/(1+10^((Log IC50−X)*HillSlope))
(§5) The same procedure was used for AR T877A (Invitrogen cat no. PV4667), PR (Invitrogen cat no. PV4666), ER-α (Invitrogen cat no. PV4544), ER-β (Invitrogen cat no. PV4541) and GR (Invitrogen cat no. PV4683). The assay was adapted to exclude possible non-specific aggregation mechanism of inhibition by adding very low concentration of detergent Triton X-100 (0.001%) to the assay buffer following the Shoichet review guidelines [Shoichet BK (2006) Screening in a spirit haunted world. Drug Discov Today 11:607-615].

[2] = biological target: T3, Progesterone Receptor (PR) LBD (Homo sapiens, UniProt P06401); experiment: TR-FRET SRC1-4 coactivator recruitment assay, PR LBD; settings: Progesterone = EC80; for effect on PR LBD recruitment of fluorescent labelled SRC1-4 coactivator: maximal concentration of 100 μM; for IC50: TR-FRET, ± SEM (n = 6), read-out: NR LBDs IC50 (μM) PR
T3 construct: purchased Invitrogen PV4666
T3 sequence (P06401 679-913 limits assumed): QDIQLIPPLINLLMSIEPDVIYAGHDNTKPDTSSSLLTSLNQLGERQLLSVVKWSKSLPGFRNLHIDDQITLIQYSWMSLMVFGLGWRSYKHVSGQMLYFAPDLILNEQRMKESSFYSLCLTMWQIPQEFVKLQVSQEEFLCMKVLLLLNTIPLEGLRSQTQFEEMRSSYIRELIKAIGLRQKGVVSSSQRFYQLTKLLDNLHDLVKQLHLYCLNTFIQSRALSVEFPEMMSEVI
Experimental: as §1, §2, §3, §4, §5

[3] = biological target: T4, Estrogen Receptor alpha (ER-α) LBD (Homo sapiens, UniProt P03372); experiment: TR-FRET PGC1-α coactivator recruitment assay, ERα LBD; settings: Estradiol = EC80; for IC50: TR-FRET, ± SEM (n = 6), read-out: NR LBDs IC50 (μM) ER-α; for effect on ERα LBD recruitment of fluorescent labelled PGC1-α coactivator: maximal concentration of 100 μM
T4 sequence (P03372 311-547 limits assumed): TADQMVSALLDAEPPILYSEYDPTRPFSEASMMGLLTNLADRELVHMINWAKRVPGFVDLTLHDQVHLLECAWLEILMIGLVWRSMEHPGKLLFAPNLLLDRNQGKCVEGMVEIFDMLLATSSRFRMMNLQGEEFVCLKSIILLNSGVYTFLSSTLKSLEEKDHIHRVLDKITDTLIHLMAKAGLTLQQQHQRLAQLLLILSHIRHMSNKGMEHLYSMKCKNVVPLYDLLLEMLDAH
Experimental: as §1
(§6) Selectivity of the diarylhydrazide scaffold for the AR was determined through a TR-FRET assay in ERα (FIGS. 8A & 9A1) and ERR (FIGS. 8B & 9A2). […] The non-LBP nature of this inhibition was confirmed by a FP assay (FIGS. 9C, 9B1 & 9B2).
as §2, §3, §4, §5

[4] = biological target: Estrogen Receptor beta (ER-β) LBD (Homo sapiens, UniProt Q92731); experiment: TR-FRET PGC1-α coactivator recruitment assay, ERβ LBD; settings: Estradiol = EC80; for IC50: TR-FRET, ± SEM (n = 6), read-out: NR LBDs IC50 (μM) ER-β; for effect on ERβ LBD recruitment of fluorescent labelled PGC1-α coactivator: maximal concentration of 100 μM
Experimental: as §1, §6, §2, §3, §4, §5

Chain of Estrogen Receptor beta (ER-β) LBD (Q92731 264-498 limits assumed): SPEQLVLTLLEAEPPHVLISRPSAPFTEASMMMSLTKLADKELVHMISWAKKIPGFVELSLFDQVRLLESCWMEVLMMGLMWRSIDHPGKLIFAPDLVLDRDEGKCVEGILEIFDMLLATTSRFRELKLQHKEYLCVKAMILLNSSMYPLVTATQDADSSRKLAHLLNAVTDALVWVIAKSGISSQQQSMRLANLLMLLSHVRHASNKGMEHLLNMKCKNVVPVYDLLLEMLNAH

`O=C(N/N=C/c1cc(Cl)ccc1O)c1cc2ccccc2cc1O` [MDG605] was tested, and the “type of AR antagonism (full / partial)” value (AR-LBD wt) was “full AR antagonists”, the IC50 (AR-LBD wt) was 10.3 ± 1.4 µM and the “effect on SRC1-4 recruitment by GR LBD” value [1] was “do not affect”. The IC50 [1] was > 100 µM, the “effect on PR LBD recruitment of fluorescent labelled SRC1-4 coactivator” value (from here on “effect on PR LBD recruitment”) [2] was “inhibit” and the IC50 [3] was 50 to 100 µM. The “effect on ERα LBD recruitment of fluorescent labelled PGC1-α coactivator” value (shortened to “effect on ERα LBD recruitment”) [3] was “inhibit”, the IC50 [4] was 50 to 100 µM and the “effect on ERβ LBD recruitment of fluorescent labelled PGC1-α coactivator” value (“effect on ERβ LBD recruitment” for short) [4] was “inhibit”.
In the case of `O=C(N/N=C/c1cc([N+](=O)[O-])ccc1O)c1cc2ccccc2cc1O` [MDG614], the “type of AR antagonism (full / partial)” value (AR-LBD wt) is reported as “full AR antagonists”, the IC50 (AR-LBD wt) is reported as 33.4 ± 4.7 µM and the “effect on SRC1-4 recruitment by GR LBD” value [1] is reported as “do not affect”. For the same molecule, the IC50 [1] was > 100 µM, the “effect on PR LBD recruitment” value [2] was “inhibit” and the IC50 [3] was > 100 µM. The “effect on ERα LBD recruitment” value [3] was “inhibit”, the IC50 [4] was > 100 µM and the “effect on ERβ LBD recruitment” value [4] was “inhibit”.
In the case of `O=C(N/N=C/c1cc(O)ccc1O)c1cc2ccccc2cc1O` [MDG611], the “type of AR antagonism (full / partial)” value (AR-LBD wt) is reported as “full AR antagonists”, the IC50 (AR-LBD wt) is reported as 39.9 ± 16.9 µM and the “effect on SRC1-4 recruitment by GR LBD” value [1] is reported as “do not affect”. For the same molecule, the IC50 [1] was > 100 µM, the “effect on PR LBD recruitment” value [2] was “inhibit” and the “effect on ERα LBD recruitment” value [3] was “inhibit”. For the same molecule, the “effect on ERβ LBD recruitment” value [4] was “inhibit”.
With `COC(=O)c1ccc(O)c(/C=N/NC(=O)c2cc3ccccc3cc2O)c1` [MDG629] the “type of AR antagonism (full / partial)” value (AR-LBD wt) was “full AR antagonists”, the IC50 (AR-LBD wt) was 60.8 µM and the “effect on SRC1-4 recruitment by GR LBD” value [1] was “do not affect”. The IC50 [1] was > 100 µM, the “effect on PR LBD recruitment” value [2] was “inhibit” and the “effect on ERα LBD recruitment” value [3] was “inhibit”. For the same molecule, the “effect on ERβ LBD recruitment” value [4] was “inhibit”.
With `O=C(N/N=C/c1cccc(Cl)c1)c1cc2ccccc2cc1O` [MDG491] the “type of AR antagonism (full / partial)” value (AR-LBD wt) was “full AR antagonists”, the IC50 (AR-LBD wt) was 42.7 ± 3.5 µM and the “effect on SRC1-4 recruitment by GR LBD” value [1] was “do not affect”. The IC50 [1] was > 100 µM, the IC50 [2] was 50 to 100 µM and the “effect on PR LBD recruitment” value [2] was “inhibit”. For the same molecule, the IC50 [3] was > 100 µM, the “effect on ERα LBD recruitment” value [3] was “inhibit” and the IC50 [4] was > 100 µM. For the same molecule, the “effect on ERβ LBD recruitment” value [4] was “inhibit”.
`COc1cccc(/C=N/NC(=O)c2cc3ccccc3cc2O)c1O` [MDG617] was tested, and the “type of AR antagonism (full / partial)” value (AR-LBD wt) was “full AR antagonists”, the IC50 (AR-LBD wt) was 12.2 ± 0.5 µM and the “effect on SRC1-4 recruitment by GR LBD” value [1] was “do not affect”. The IC50 [1] was > 100 µM, the “effect on PR LBD recruitment” value [2] was “inhibit” and the “effect on ERα LBD recruitment” value [3] was “inhibit”. For the same molecule, the “effect on ERβ LBD recruitment” value [4] was “inhibit”.
For `O=C(N/N=C/c1ccccc1O)c1cc2ccccc2cc1O` [MDG608], the “type of AR antagonism (full / partial)” value (AR-LBD wt) was “full AR antagonists”, the IC50 (AR-LBD wt) was 55.2 ± 19.2 µM and the “effect on SRC1-4 recruitment by GR LBD” value [1] was “do not affect”. The IC50 [1] was > 100 µM, the IC50 [2] was > 100 µM and the “effect on PR LBD recruitment” value [2] was “inhibit”. The IC50 [3] was > 100 µM, the “effect on ERα LBD recruitment” value [3] was “inhibit” and the “effect on ERβ LBD recruitment” value [4] was “inhibit”.
With `O=C(O)c1ccc(O)c(/C=N/NC(=O)c2cc3ccccc3cc2O)c1` [MDG630] the “type of AR antagonism (full / partial)” value (AR-LBD wt) was “full AR antagonists”, the IC50 (AR-LBD wt) was 43.5 ± 3.7 µM and the “effect on SRC1-4 recruitment by GR LBD” value [1] was “do not affect”. For the same molecule, the IC50 [1] was > 100 µM, the “effect on PR LBD recruitment” value [2] was “inhibit” and the “effect on ERα LBD recruitment” value [3] was “inhibit”. For the same molecule, the “effect on ERβ LBD recruitment” value [4] was “inhibit”.
With `Cc1cccc(/C=N/NC(=O)c2cc3ccccc3cc2O)c1O` [MDG616] the “type of AR antagonism (full / partial)” value (AR-LBD wt) was “full AR antagonists”, the IC50 (AR-LBD wt) was 13.2 ± 2.8 µM and the “effect on SRC1-4 recruitment by GR LBD” value [1] was “do not affect”. For the same molecule, the IC50 [1] was > 100 µM, the “effect on PR LBD recruitment” value [2] was “inhibit” and the “effect on ERα LBD recruitment” value [3] was “inhibit”. The “effect on ERβ LBD recruitment” value [4] was “inhibit”.
In the case of `COc1ccc(O)c(/C=N/NC(=O)c2cc3ccccc3cc2O)c1` [MDG612], the “type of AR antagonism (full / partial)” value (AR-LBD wt) is reported as “full AR antagonists”, the IC50 (AR-LBD wt) is reported as 52.9 ± 13.5 µM and the “effect on SRC1-4 recruitment by GR LBD” value [1] is reported as “do not affect”. For the same molecule, the IC50 [1] was > 100 µM, the IC50 [2] was 50 to 100 µM and the “effect on PR LBD recruitment” value [2] was “inhibit”. The “effect on ERα LBD recruitment” value [3] was “inhibit” and the “effect on ERβ LBD recruitment” value [4] was “inhibit”.
`CCCOc1ccc(/C=N/NC(=O)c2cc3c(ccc4ccccc43)o2)cc1` [MDG508] was tested, and the “type of AR antagonism (full / partial)” value (AR-LBD wt) was “full AR antagonists”, the “effect on SRC1-4 recruitment by GR LBD” value [1] was “do not affect” and the IC50 [1] was > 100 µM. For the same molecule, the “effect on PR recruitment of fluorescent labelled SRC1-4” value ([2]; 100 μM to 45 nM) was “partially inhibit”, the IC50 [2] was 5.9 µM and the “effect on ERα recruitment of fluorescent labelled PGC1-α” value ([3]; 100 μM to 45 nM) was “partially inhibit”. For the same molecule, the IC50 [3] was 4 ± 1.4 µM, the “effect on ERβ recruitment of fluorescent labelled PGC1-α” value ([4]; 100 μM to 45 nM) was “partially inhibit” and the IC50 [4] was 2.9 µM.
